Consider eleven molecules from publication PMC6724046 (Viruses, 2019).

Structures can show the parent of a compound that is named as a salt. Where two headings read alike, the source gives them in different places.

A word on the CC50: it is the concentration that lowers cell viability or growth by half. One may read the EC50 as the concentration that produces a half-maximal response. As a reminder, the inhibition is how much of the control response was suppressed.

Series [1] relates to CPV. In words: Immunofluorescence assay (IFA) for VP2 protein in infected F81 cells. In kind it is cell-based, Canine parvovirus. As to conditions: about 30 hpi.
Series [2] concerns CPV. In words: Time of addition study (percentage CPE inhibition). In kind it is cell-based, Canine parvovirus. As to conditions: 10 μM; for Percentage CPE inhibition (mean ± s.d.): drug added 1 hour post virus infection, 40 h postinfection.
For series [3], the system named is F81 cells. In words: Caspase-Glo 3/7 assay in F81 cells with or without CPV infection. The settings on record: 10 μM, with or without CPV infection, 4, 8, 12 and 24 hpi. In kind it is cell-based, Feline.
The subject of series [4] is CPV SD6. In words: Absolute quantitative PCR of CPV VP2 gene copies in infected F81 cells. The format is cell-based, Canine parvovirus. The settings on record: 10 μM, 1 mL whole cell lysates, 40 hpi.
Series [5] is described as follows: 50% cytotoxicity concentration (CC50) assay. The format is cell-based, Feline. As to conditions: cat.
The test system of series [6] is CPV. In words: 50% antiviral efficacy concentration (EC50) assay, CPE-based. In kind it is cell-based, Canine parvovirus. The settings on record: F81 cells pretreated 1 h, CPV MOI 0.076, 40 h.
Series [7] has as its system CPV SD6 (New CPV-2a strain). In words: CPE-based antiviral inhibitor screening assay. The format is cell-based, Canine parvovirus. The settings on record: for Percentage CPE inhibition (mean ± s.d.) / anti-CPV effect on F81 cells: 10 μM; for Percentage CPE inhibition (mean ± s.d.): cells treated with drug 1 hour prior to virus infection, MOI 0.076, 40 h postinfection; for anti-CPV effect on F81 cells: CPE-based screening assay.

Series [8] has as its system F81 cells. In words: 50% cytotoxicity concentration (CC50) assay. The format is cell-based, Feline.
The test system of series [9] is CPV variant SD3 (New CPV-2b strain). The series is described as follows: Western blot of VP2 expression, variant SD3. The format is cell-based, Canine parvovirus. As to conditions: 10 μM, SD3, 40 hpi, normalized to 0.1% DMSO-treated group. Background: Immunoblotting shows a protein as a band on a membrane.
The test system of series [10] is CPV variant BJ-1 (New CPV-2a strain). In words: Western blot of VP2 expression, variant BJ-1. In kind it is cell-based, Canine parvovirus. As to conditions: 10 μM, BJ-1, 40 hpi, normalized to 0.1% DMSO-treated group.
Series [11] relates to CPV variant SD6 (New CPV-2a strain). In words: Western blot of VP2 expression, variant SD6. In kind it is cell-based, Canine parvovirus. The settings on record: 10 μM, SD6, 40 hpi, normalized to 0.1% DMSO-treated group.
For series [12], the system named is CPV enteritis. Also on record: method as in earlier work. As to conditions: Oseltamivir-treated group; cited from earlier work.
The mark [13] stands for this setting: F81 cells, 40 h incubation, read-out: CC50.

`CC(=O)Oc1ccccc1C(=O)Nc1ncc([N+](=O)[O-])s1` [Nitazoxanide]: the “CPV infection by IFA (VP2 staining)” value is listed as “CPV infection could be inhibited” in series [1] (5 μM), “Few cells were CPV-positive” in [1] (10 μM) and “Almost no green signals were detected” in [1] (20 μM). Moreover, the “anti-CPV activity by time of drug addition” value in series [2] (drug added 3 h postinfection) is listed as “anti-CPV activity of Nitazoxanide was observed”. In series [3], the “pro- or antiapoptotic effect (Caspase 3/7 activity)” value (“pro- or antiapoptotic effect” for short) is recorded as “antiapoptotic effects were observed within 12 h”. For the same molecule, the “CPV viral DNA copy numbers compared with the 0.1% DMSO-treated group” value in series [4] amounted to 0.07%. Besides, the half-maximal cytotoxic concentration (CC50) at 40 h in series [5] (setting [13]) turned out to be 21 µM. In addition, in series [6] (Canine parvovirus), the concentration for a half-maximal effect (EC50) was found to be 2710 nM.
With `Nc1nc2[nH]cc(CCc3ccc(C(=O)N[C@@H](CCC(=O)[O-])C(=O)[O-])cc3)c2c(=O)[nH]1.Nc1nc2[nH]cc(CCc3ccc(C(=O)N[C@@H](CCC(=O)[O-])C(=O)[O-])cc3)c2c(=O)[nH]1.O.O.O.O.O.[Na+].[Na+].[Na+].[Na+]` [Pemetrexed Disodium Hydrate], the figures for the “Percentage CPE inhibition (mean ± s.d.)” value in series [2] and in series [7] were 30.28 ± 5.74% and 26.56 ± 2.12%, respectively.
Consider `O=c1[nH]c(=O)n([C@H]2C[C@H](O)[C@@H](CO)O2)cc1C(F)(F)F` [Trifluridine], for which the CC50 at 40 h in series [5] is over 160 µM. Moreover, the 50% effective concentration (EC50) in series [6] (Canine parvovirus) came to 9350 nM.
Turning to `Nc1ccn([C@@H]2O[C@H](CO)[C@@H](O)C2(F)F)c(=O)n1` [Gemcitabine], the “Percentage CPE inhibition (mean ± s.d.)” value in series [2] turned out to be 42.8 ± 6.13%. In [8] (setting [13]), the CC50 stood at 40 µM. Also, the EC50 in [6] stood at 620 nM.
As to `Cc1cc(C(C#N)c2ccc(Cl)cc2)c(Cl)cc1NC(=O)c1cc(I)cc(I)c1[O-].[Na+]` (stereo not drawn) [Closantel Sodium], the “relative expression of VP2” value in series [9] is reported as 23.85%; in series [10] it was 12.83%; in [11], 22.50%. Moreover, the “CPV infection by IFA (VP2 staining)” value in [1] (5 μM) was “CPV infection could be inhibited”; in [1] (10 μM), “Few cells were CPV-positive”; in series [1] (20 μM) it was “Almost no green signals were detected”. The “Percentage CPE inhibition (mean ± s.d.)” value in series [2] is reported as 58.14 ± 7.28%; in series [7] it was 69.76 ± 6.06%. For the same molecule, the “pro- or antiapoptotic effect” value in [3] is listed as “no pro- or antiapoptotic effects”. Further, in series [4], the “CPV viral DNA copy numbers compared with the 0.1% DMSO-treated group” value stood at 24.04%. Moreover, half-maximal cytotoxicity in [8] (CC50) was put at 19.1 µM. For the same molecule, the EC50 in series [6] turned out to be 6010 nM.
Regarding `Nc1ccn(C[C@@H](CO)OCP(=O)(O)O)c(=O)n1` [Cidofovir], the “anti-CPV effect on F81 cells” value in [7] is “no anti-CPV effects”.
For the molecule `CN1CCC(=C2c3ccccc3CCc3sccc32)CC1.O=C(O)CC(O)C(=O)O` [Pizotifen Malate], the “Percentage CPE inhibition (mean ± s.d.)” value in series [2] amounted to 26.48 ± 2.91%; in [7], 29.2 ± 2.72%.
Take `Nc1nc(Cl)nc2c1ncn2[C@H]1C[C@H](O)[C@@H](CO)O1` [Cladribine]: the 50% cytotoxic concentration (CC50) at 40 h in [5] (CC50) turned out to be 40.2 µM. Moreover, the EC50 in series [6] (Canine parvovirus) worked out at 320 nM.
For `CCOC(=O)C1=C[C@@H](OC(CC)CC)[C@H](NC(C)=O)[C@@H](N)C1` [Oseltamivir], the “anti-CPV effect on F81 cells” value in series [7] was “no anti-CPV effects”. The inhibition at 10 µM in series [7] (Canine parvovirus, read-out: Percentage CPE inhibition (mean ± s.d.)) came to 2.13 ± 2.41%. In series [12], the “weight versus control group” value is on record as “significant increase of weight” and the “white blood cell (WBC) count versus control group” value is on record as “no changes”.
Take `Cc1cc(C(C#N)c2ccc(Cl)cc2)c(Cl)cc1NC(=O)c1cc(I)cc(I)c1O` (stereo not drawn) [Closantel]: the “relative expression of VP2” value in [9] was 10.78%; in series [10] it was 14.58%; in series [11], 30.1%. The “CPV infection by IFA (VP2 staining)” value in series [1] (5 μM) was “CPV infection could be inhibited”; in series [1] (10 μM) it was “Few cells were CPV-positive”; in series [1] (20 μM), “Almost no green signals were detected”. The “pro- or antiapoptotic effect” value in series [3] is listed as “no pro- or antiapoptotic effects”. Besides, the “CPV viral DNA copy numbers compared with the 0.1% DMSO-treated group” value in [4] turned out to be 20.83%. In series [5], the CC50 at 40 h is 13.7 µM. The concentration giving a half-maximal response (EC50) in series [6] (Canine parvovirus) was determined as 7770 nM.
Take `Nc1ccn([C@@H]2O[C@H](CO)[C@@H](O)C2(F)F)c(=O)n1` [Gemcitabine HCl]: the CC50 in series [8] (setting [13]) was 142 µM. For the same molecule, the EC50 in [6] (Canine parvovirus) was found to be 680 nM.
